Source: US8372967B2, “Compounds and methods for modulating expression of GCCR” (Isis Pharmaceuticals, Inc., priority 2006, dated 2013)
Strand notation (5' to 3'): a small letter for the sugar, then the base; units joined by * are phosphorothioate-linked, units joined directly phosphodiester-linked; [ ] holds rarer units or linkages, { } end groups; capitals alone tell only the bases. [PAM-N] = nucleoside carrying a 2'-(butylacetamido)-palmitamide group (palmitic acid C16 conjugate) (N: the base); e = 2'-O-(2-methoxyethyl) (MOE); l = locked nucleic acid (LNA); [5mC] = 5-methylcytosine; d = 2'-deoxy (DNA)

What was measured:
[1] = test system: ApoB mRNA; experiment: ApoB mRNA level in liver, Balb/c mice dosed i.p. twice per week for three weeks (Table 29); EC50 in liver; assay type: in vivo, mouse; settings: Table 30, Balb/c mice, 2.4 μmol/kg
Experimental: Prior to quantitative PCR analysis, primer-probe sets specific to the target gene being measured were evaluated for their ability to be “multiplexed” with a GAPDH amplification reaction. After isolation the RNA is subjected to sequential reverse transcriptase (RT) reaction and real-time PCR, both of which are performed in the same well. RT and PCR reagents were obtained from Invitrogen Life Technologies (Carlsbad, Calif.). […] The RT reaction was carried out by incubation for 30 minutes at 48° C. Following a 10 minute incubation at 95° C. to activate the PLATIN 9M® Taq, 40 cycles of a two-step PCR protocol were carried out: 95° C. for 15 seconds (denaturation) followed by 60° C. for 1.5 minutes (annealing/extension).
170 μL of RiboGreen® working reagent (RiboGreen® reagent diluted 1:350 in 10 mM Tris-HCl, 1 mM EDTA, pH 7.5) was pipetted into a 96-well plate containing 30 μL purified cellular RNA. The plate was read in a CytoFluor® 4000 (PE Applied Biosystems) with excitation at 485 nm and emission at 530 nm.
(§1) Antisense compound doses included 2.4, 1.2, 0.6, 0.3 and 0.15 μmol/kg. For antisense compounds 14 nucleotides in length, these doses equate to approximately 12, 6, 3, 1.5 or 0.75 mg/kg, respectively. Shown in Table 25 are the sequences and motifs of the antisense compounds used in this study. […] Bolded residues indicate 2′-O-methoxyethyl moieties and italicized residues indicate methyleneoxy (4′-CH2—O-2′) BNAs. The internucleoside linkages of each compound are phosphorothioate throughout. All cytosine residues of ISIS 147764 and ISIS 372938 are replaced by 5-methyl cytosines. For ISIS 387462, only the cytosine residue in the wing of the compound is replaced by 5-methyl cytosine. ApoB antisense compounds are targeted to publicly available ApoB-100 sequences, including Genbank Accession No. XM—137955.5 (SEQ ID NO: 2).
(§2) Forty-eight hours following the final injection, mice were sacrificed to evaluate transaminases (Table 26); liver and kidney weight (Table 27); triglyceride, LDL, HDL and free fatty acid levels (Table 28); target mRNA level in liver (Table 29); target protein level in plasma; and oligonucleotide tissue concentration (Table 30). These endpoints were determined using methods described herein and well known to those of ordinary skill in the art.
The EC50 for ISIS 387462 in the liver was determined by comparing oligonucleotide concentration in the liver to inhibition of ApoB mRNA.

[2] = ALT and AST levels and adverse side effects, ApoB study (Table 26); assay type: in vivo, mouse; settings: Balb/c mice, i.p. twice per week for three weeks, 2.4 μmol/kg, 48 h after final injection
Experimental: as §1, §2

[3] = test system: ApoB mRNA; experiment: ApoB mRNA in liver, Balb/c mice, BNA short antisense compounds twice per week for three weeks (Table 89); assay type: in vivo, mouse; settings: relative to saline
Experimental: The short antisense compounds shown in Table 88 were tested for their effects in vivo. […] A 5-10-5 MOE gapmer was used for a control treatment. Mice were sacrificed approximately 48 hours following the final dose. Liver tissue was collected for RNA isolation, and blood was collected for serum chemistry analyses. ApoB mRNA levels were measured by real-time PCR as described herein. ApoB mRNA levels were normalized to RNA levels as determined by RIBOGREEN, and are presented in Table 89 as percent inhibition relative to ApoB mRNA levels in saline-treated control animals.

[4] = test system: ApoB mRNA; experiment: ApoB mRNA in liver and ED50, single dose of BNA short antisense compounds (Table 92); assay type: in vivo, mouse; settings: ApoB mRNA in liver; for % Inhib: Balb/c mice, relative to saline
Experimental: (§3) The short antisense compounds tested were ISIS 387462 and ISIS 398296. Each dose group consisted of four animals. A 5-10-5 MOE gapmer was used for a control treatment. Mice were sacrificed approximately 48 hours following the final dose. Liver tissue was collected for RNA isolation, and blood was collected for serum chemistry analyses. ApoB mRNA levels were measured by real-time PCR as described herein. ApoB mRNA levels were normalized to RNA levels as determined by RIBOGREEN, and are presented in Table 92 as percent inhibition relative to ApoB mRNA levels in saline-treated control animals.
At the 8 umol/kg dose, ApoB inhibition by the short antisense compounds was greater than observed with a 5-10-5 MOE gapmer at an equivalent dose. […] Triglycerides were reduced at the highest dose.

[5] = test system: PTP1B mRNA; experiment: Antisense inhibition of human PTP1B in HuVEC cells, 3 nM (Table 84); assay type: cell-based
Experimental: Short antisense compounds targeted to a PTP1B nucleic acid were tested for their effects on PTP1B mRNA in vitro. Cultured HuVEC cells at a density of 5000 cells per well in a 96-well plate were treated as described herein with 3 nM of short antisense compound. After the treatment period, RNA was isolated from the cells and PTP1B mRNA levels were measured by quantitative real-time PCR, as described herein. PTP1B mRNA levels were adjusted according to total RNA content as measured by RIBOGREEN®. Results are presented as percent inhibition of PTP1B (% Inhib), relative to untreated control cells.

[6] = test system: PTP1B mRNA; experiment: Antisense inhibition of human PTP1B in HepG2 cells, 25 nM (Table 85); assay type: cell-based
Experimental: Short antisense compounds targeted to a PTP1B nucleic acid were tested for their effects on PTP1B mRNA in vitro. Cultured HepG2 cells at a density of 10000 cells per well in a 96-well plate were treated with 25 nM of antisense oligonucleotide. After the treatment period, RNA was isolated from the cells and PTP1B mRNA levels were measured by quantitative real-time PCR, as described herein. PTP1B mRNA levels were adjusted according to total RNA content as measured by RIBOGREEN®. Results are presented as percent inhibition (% Ihib) of PTP1B, relative to untreated control cells.

[7] = test system: PTP1B mRNA; experiment: Dose response for human PTP1B in HuVEC cells, PPS 198 and PPS 3000 (Tables 86, 87); assay type: cell-based
Experimental: Human vascular endothelial (HuVEC) cells were plated at a density of 5000 cells per well and treated as described herein with nM concentrations of short antisense compound as indicated in Table 86. After the treatment period, RNA was isolated from the cells and PTP1B mRNA levels were measured by quantitative real-time PCR, as described herein. PTP1B mRNA levels were adjusted according to total RNA content as measured by RIBOGREEN®. Two different human PTP1B primer probe sets were used to measure mRNA levels. Results with Primer Probe Set (PPS) 198 are shown in Table 86, and results with Primer Probe Set (PPS) 3000 are shown in Table 87. Results are presented as percent inhibition of PTP1B mRNA expression relative to untreated control cells.

[8] = Triglycerides, total cholesterol, HDL-C, LDL-C and adverse effects (Example 30); assay type: in vivo, mouse
Experimental: as §3, with “0.4,” for “The short antisense compounds tested were ISIS 387462”, “0.16 umol/kg.” for “ISIS 398296.”, “95” for “92”
At the 2.5 umol/kg dose, ApoB inhibition by the short antisense compounds was greater than observed with a 5-10-5 MOE gapmer at an equivalent dose. […] Triglycerides were reduced at the 2.5 and […] doses of ISIS 387462 and ISIS 391872.

Q: With “147764 (antisense eG*eT*e[5mC]*e[5mC]*e[5mC]*dT*dG*dA*dA*dG*dA*dT*dG*dT*d[5mC]*eA*eA*eT*eG*e[5mC]) [compound 147764]” as the substance, how does the “ApoB mRNA level” value [1] read?
A: 58 % of saline control

Q: And the AST [2]?
A: 64.0 IU/L

Q: What does the source list for “398296 (GGTACATGGAAGTC; 2-10-2 (6'S)-6'-methyl BNA gapmer, chemistry not fully specified) [compound 398296]”?
A: % Inhib ([3]; i.p. 0.1 umol/kg twice per week for three weeks): 17%; % Inhib ([3]; i.p. 0.32 umol/kg twice per week for three weeks): 35%; % Inhib ([3]; i.p. 1 umol/kg twice per week for three weeks): 80%; % Inhib ([3]; i.p. 3.2 umol/kg twice per week for three weeks): 98%; % Inhib ([4]; single i.p. injection 1 umol/kg): 19%; % Inhib ([4]; single i.p. injection 2 umol/kg): 54%; % Inhib ([4]; single i.p. injection 4 umol/kg): 81%; % Inhib ([4]; single i.p. injection 8 umol/kg): 97%

Q: Which results are given for “399301 (GTGTGCACACAGCT; all C 5-methyl, all phosphorothioate, sugars by position not given here; further chemistry not fully specified) [compound 399301]”?
A: % Inhib [5]: 55%; % Inhib [6]: 43%; % Inhibition ([7]; PPS 198, 1.11 nM): 8%; % Inhibition ([7]; PPS 198, 3.33 nM): 63%; % Inhibition ([7]; PPS 198, 10.0 nM): 91%; % Inhibition ([7]; PPS 198, 30.0 nM): 97%; % Inhibition ([7]; PPS 3000, 1.11 nM): 16%; % Inhibition ([7]; PPS 3000, 3.33 nM): 65%; % Inhibition ([7]; PPS 3000, 10.0 nM): 93%; % Inhibition ([7]; PPS 3000, 30.0 nM): 99%

Q: With “404137 (antisense e[5mC]*eA*dG*dT*dG*dT*dG*d[5mC]*dA*d[5mC]*dA*d[5mC]*eA*eG) [compound 404137]” as the substance, how does the “% Inhib” value [5] read?
A: 76%

Q: What about the “% Inhib” value [6] of the same substance?
A: 71%

Q: For “404138 (antisense e[5mC]*eT*d[5mC]*dA*dG*dT*dG*dT*dG*d[5mC]*dA*d[5mC]*eA*e[5mC]) [compound 404138]”, which “% Inhib” value [5] is on record?
A: 76%

Q: What about the “% Inhib” value [6] of the same substance?
A: 86%

Q: For “404139 (eG*eT*dG*d[5mC]*dA*d[5mC]*dA*d[5mC]*dA*dG*d[5mC]*dT*eG*eA) [compound 404139]”, which “% Inhib” value [5] is on record?
A: 80%

Q: And the “% Inhib” value [6]?
A: 45%

Q: For “404140 (eG*e[5mC]*dA*d[5mC]*dA*d[5mC]*dA*dG*d[5mC]*dT*dG*dA*eG*eG) [compound 404140]”, which “% Inhib” value [5] is on record?
A: 73%

Q: What about the “% Inhib” value [6] of the same substance?
A: 93%

Q: For “ISIS 391872: GGTACATGGAAGTC 1-1-10-2 2′-(butylacetomido)-palmitamide Methyleneoxy BNA/Methyleneoxy BNA, Unmodified cytosines in gap, ApoB ([PAM-G]*lG*dT*dA*dC*dA*dT*dG*dG*dA*dA*dG*lT*l[5mC])”, which Triglycerides ([8]; at the 2.5 and 1.0 mg/kg doses) is on record?
A: reduced

Q: What about the “total cholesterol, HDL-C and LDL-C” value ([8]; in a dose-dependent manner) of the same substance?
A: markedly reduced

Q: Which ED50 ([4]; single i.p. injection) does the source give for “ISIS 398296: GGTACATGGAAGTC 2-10-2 (6′S)-6′-methyl-Methyleneoxy BNA, Unmodified Cytosines, ApoB (2-10-2 6'-(S)-methyl BNA gapmer, chemistry not fully specified)” here?
A: 8.7 mg/kg
